Key:
[1] = Effect of treatment rate on PFAS removal from synthetic AFFF wastewater, NMR (Example 4)
Procedure: Dimethyldimyristylammonium Bromide was tested in synthetic AFFF wastewater to determine if removal efficiency of the PFAS is affected by treatment rate. The treatment compound was added at 2%, 3%, and 4% w/w loading to AFFF wastewater. Solids were separated out via centrifugation and the solution was analyzed by NMR. […] FIG. 5 is the NMR spectra of each solution after treatment. […] As quat loading increased, the total area under the peaks was reduced. In the sample with 4% dimethyldioctadecylammonium bromide loading, total peak area was reduced by 90%.

[2] = Short chain PFAS standard treated with 2% quat: all PFAS (Example 5)
Procedure: A standard with approximately 1000 ppt each of PFOA, perfluoro-n-pentanoic acid (PFPeA), and perfluorobutane sulfonic acid (PFBS) was prepared via serial dilution and treated with 2% dimethyldioctadecylammonium bromide in technical triplicate. Samples were centrifuged and the liquid was filtered into a new centrifuge tube using a 0.45 micron syringe filter. Table 2 indicates the concentration of each PFAS after treatment.

[3] = PFAS removal kinetics in PFAS-contaminated field sample, LC-QTOF (Example 6); details: 0.01% treatment; aliquots at 0, 5, 10, 30, 90 minutes
Procedure: To determine PFAS removal kinetics, a PFAS-contaminated field sample was treated with dimethyldioctadecylammonium bromide. Aliquots were pulled at timed intervals and tested for remaining PFAS content. To a polypropylene bottle, 1000 mL of approximately 4 ppm PFAS-contaminated water was added to a 1 L HDPE bottle with a Teflon stir bar. The sample was stirred at 500 RPM for 10 minutes prior to the start of the experiment. To a 50 mL centrifuge tube, 20 mL aliquots were collected at 0, 5, 10, 30, and 90 minutes following treatment with 0.01%. Each sample was centrifuged to remove any remaining solids and passed through 0.45 micron filter prior to analysis by LC-QTOF. […] Subsequent PFAS removal was noted but minimal.

[4] = Solubility in water

Row | SMILES | Concentration of remaining PFAS as concentration of quaternary ammonium compound increased ([1]; 2%, 3%, and 4% w/w loading) | Reduction of total NMR peak area ([1]; 4% w/w loading) [%] | Reduction in all PFAS concentrations [2] [%] | Remaining PFAS content between the T=0 and T=5 sample [3] | Solubility in water [4]
1 | CCCCCCCCCCCCCC[N+](C)(C)CCCCCCCCCCCCCC.[Br-] [Dimethyldimyristylammonium bromide, dimethyldimyristylammonium bromide] | decreased | – | – | – | –
2 | CCCCCCCCCCCCCCCCCC[N+](C)(C)CCCCCCCCCCCCCCCCCC.[Br-] [Dimethyldioctadecylammonium bromide, dimethyldioctadecylammonium bromide] | – | 90 | > 99.87 | rapid decrease | nearly insoluble in water
